{"source": "ChEMBL document CHEMBL6177951", "about": "“Synthesis and anti-MRSA activity of quaternized small molecule antimicrobial peptide mimics based on norharmane” (Eur J Med Chem, 2025)", "key": {"Staphylococcus aureus [1]": {"tested_on": "Staphylococcus aureus", "experiment": "Antibacterial activity against methicillin-resistant Staphylococcus aureus clinical isolate M-16 incubated for 14 hrs by two-fold serial dilution method", "type": "functional"}, "[2]": {"experiment": "Acute toxicity in female Kunming mouse assessed as aberrant appearance at 500 to 2000 mg/kg, sc measured after 7 days", "type": "organism-based", "details": "in vivo, 168 h, dose 500-2000 mg/kg, time 7 day"}, "[3]": {"experiment": "Hemolytic activity in sheep RBC assessed as hemolysis at 256 times MIC incubated for 1 hrs relative to control", "type": "toxicity, cell-based, Ovis aries, Erythrocyte", "details": "sheep red blood cells, read-out: Activity"}, "Calf thymus DNA": {"tested_on": "Calf thymus DNA", "experiment": "Binding affinity to calf thymus DNA assessed as change in Gibbs free energy at 3 uM by ITC assay", "type": "nucleic-acid assay", "details": "Bos taurus"}, "[4]": {"experiment": "Toxicity in female Kunming mouse assessed as inflammatory response in kidney at 500 to 2000 mg/kg, sc measured after 7 days by H and E staining based analysis", "type": "organism-based", "details": "in vivo, 168 h, dose 500-2000 mg/kg, time 7 day"}, "Staphylococcus aureus [5]": {"tested_on": "Staphylococcus aureus", "experiment": "Antibiofilm activity against methicillin-resistant Staphylococcus aureus assessed as inhibition of biofilm formation at 2 ug/ml incubated for 24 hrs by crystal violet staining based analysis relative to control", "type": "functional", "set-up": "scale not given: the % may be the effect or the level left", "details": "dose 2 µg/ml"}, "Staphylococcus aureus [6]": {"tested_on": "Staphylococcus aureus", "experiment": "In vivo antibacterial activity against methicillin-resistant Staphylococcus aureus infected in female Kunming mouse skin infection model assessed as reduction in bacterial load measured after 48 hrs", "type": "functional, organism-based", "details": "dose 5-20 mg/kg"}, "Staphylococcus aureus [7]": {"tested_on": "Staphylococcus aureus", "experiment": "Antibacterial activity against Staphylococcus aureus ATCC 33591 assessed as log reduction in bacterial growth at 4 times MIC measured at 6 hrs by time-kill kinetic assay", "type": "functional"}, "[8]": {"experiment": "Toxicity in female Kunming mouse assessed as inflammatory response in liver at 500 to 2000 mg/kg, sc measured after 7 days by H and E staining based analysis", "type": "organism-based", "details": "in vivo, 168 h, dose 500-2000 mg/kg, time 7 day"}, "Staphylococcus aureus [9]": {"tested_on": "Staphylococcus aureus", "experiment": "Induction of oxidative damage in methicillin-resistant Staphylococcus aureus assessed as loss of GSH activity incubated for 8 hrs", "type": "functional, organism-based", "details": "dose 0.25-2 µg/ml"}, "Staphylococcus aureus [10]": {"tested_on": "Staphylococcus aureus", "experiment": "Bactericidal activity against Staphylococcus aureus ATCC 33591 assessed as eradication of bacteria at 4 times MIC measured at 4 hrs by time-kill kinetic assay relative to control", "type": "functional"}, "Staphylococcus aureus [11]": {"tested_on": "Staphylococcus aureus", "experiment": "Antibacterial activity against methicillin-resistant Staphylococcus aureus ATCC 43300 assessed as inhibition of bacterial growth incubated for 14 hrs by two-fold serial dilution method", "type": "functional"}, "Staphylococcus aureus [12]": {"tested_on": "Staphylococcus aureus", "experiment": "Induction of morphological changes in methicillin-resistant Staphylococcus aureus assessed as appearance of fragments at 0.5 ug/ml incubated for 6 hrs by SEM analysis", "type": "functional, organism-based", "details": "dose 0.5 µg/ml"}, "Cell membrane [13]": {"tested_on": "Cell membrane", "experiment": "Induction of cell membrane permeability in methicillin-resistant Staphylococcus aureus assessed as increase in nucleic acid leakage at 2 ug/ml incubated for 8 hrs", "type": "subcellular", "details": "dose 2.0 µg/ml"}, "Cell membrane [14]": {"tested_on": "Cell membrane", "experiment": "Induction of cell membrane permeability in methicillin-resistant Staphylococcus aureus assessed as increase in protein leakage at 2 ug/ml incubated for 8 hrs by Bradford assay", "type": "subcellular", "details": "dose 2.0 µg/ml"}, "Staphylococcus aureus [15]": {"tested_on": "Staphylococcus aureus", "experiment": "Antibiofilm activity against methicillin-resistant Staphylococcus aureus assessed as disruption of preformed biofilm at 0.25 to 16 ug/ml incubated for 24 hrs by crystal violet staining based analysis", "type": "functional, organism-based", "details": "dose 0.25-16 µg/ml"}, "Staphylococcus aureus [16]": {"tested_on": "Staphylococcus aureus", "experiment": "Antibacterial activity against methicillin-resistant Staphylococcus aureus clinical isolate M-23 incubated for 14 hrs by two-fold serial dilution method", "type": "functional"}, "Staphylococcus aureus [17]": {"tested_on": "Staphylococcus aureus", "experiment": "Antibacterial activity against methicillin-resistant Staphylococcus aureus assessed as reduction in bacterial growth in presence of 16 ug/ml peptidoglycan incubated for 0.5 hrs by exogenous addition assay", "type": "functional, organism-based"}, "Staphylococcus aureus [18]": {"tested_on": "Staphylococcus aureus", "experiment": "Antibacterial activity against methicillin-resistant Staphylococcus aureus clinical isolate M-13 incubated for 14 hrs by two-fold serial dilution method", "type": "functional"}, "[19]": {"experiment": "Toxicity in female Kunming mouse assessed as pathological changes in liver at 500 to 2000 mg/kg, sc measured after 7 days by H and E staining based analysis", "type": "organism-based", "details": "in vivo, 168 h, dose 500-2000 mg/kg, time 7 day"}, "Staphylococcus aureus [20]": {"tested_on": "Staphylococcus aureus", "experiment": "Antibacterial activity against Staphylococcus aureus ATCC 33591 assessed as log reduction in bacterial growth at 2 times MIC measured at 6 hrs by time-kill kinetic assay", "type": "functional"}, "Staphylococcus aureus [21]": {"tested_on": "Staphylococcus aureus", "experiment": "Antibacterial activity against methicillin-resistant Staphylococcus aureus clinical isolate M-22 incubated for 14 hrs by two-fold serial dilution method", "type": "functional"}, "Staphylococcus aureus [22]": {"tested_on": "Staphylococcus aureus", "experiment": "Antibacterial activity against Staphylococcus aureus ATCC 33591 assessed as log reduction in bacterial growth at 1 times MIC measured at 6 hrs by time-kill kinetic assay", "type": "functional"}, "Staphylococcus aureus [23]": {"tested_on": "Staphylococcus aureus", "experiment": "In vivo antibacterial activity against methicillin-resistant Staphylococcus aureus infected in female Kunming mouse skin infection model assessed as reduction in inflammatory cells at 5 to 20 mg/kg measured after 48 hrs by H and E staining based analysis", "type": "functional, organism-based", "details": "dose 5-20 mg/kg"}, "Staphylococcus aureus [24]": {"tested_on": "Staphylococcus aureus", "experiment": "Antibacterial activity against methicillin-resistant Staphylococcus aureus assessed as reduction in bacterial growth by measuring fold increase in MIC in presence of 32 ug/ml peptidoglycan incubated for 0.5 hrs by exogenous addition assay", "type": "functional"}, "[25]": {"experiment": "Acute toxicity in female Kunming mouse assessed as mortality at 500 to 2000 mg/kg, sc measured after 7 days", "type": "organism-based", "details": "in vivo, 168 h, dose 500-2000 mg/kg, time 7 day"}, "[26]": {"experiment": "Hemolytic activity in sheep RBC assessed as hemolysis at 1024 ug/ml incubated for 1 hrs relative to control", "type": "toxicity, cell-based, Ovis aries, Erythrocyte", "details": "sheep red blood cells, at 1024 µg/mL, read-out: Activity"}, "Staphylococcus aureus [27]": {"tested_on": "Staphylococcus aureus", "experiment": "In vivo antibacterial activity against methicillin-resistant Staphylococcus aureus infected in female Kunming mouse skin infection model assessed as log reduction in bacterial load at 5 mg/kg measured after 48 hrs (reference value: 14.34 log10CFU/g)", "type": "functional"}, "L02": {"tested_on": "L02", "experiment": "Cytotoxicity against human L02 cells assessed as reduction in cell viability at 0.25 ug/ml incubated for 24 hrs by CCK-8 assay relative to control", "type": "toxicity, cell-based", "details": "l02, 24 h, at 0.25 µg/mL"}, "Staphylococcus aureus [28]": {"tested_on": "Staphylococcus aureus", "experiment": "Antibacterial activity against Staphylococcus aureus ATCC 29213 assessed as inhibition of bacterial growth incubated for 14 hrs by two-fold serial dilution method", "type": "functional"}}, "note": "The source made the active and inactive calls. No cut-off for these calls is given here."}
{"smiles": "C[n+]1ccc2c3ccccc3n(CCCCCCCCCCCn3c4ccccc4c4cc[n+](C)cc43)c2c1.[I-].[I-]", "values": [{"measurement": "MIC", "setting": "Staphylococcus aureus [1]", "result": 0.5, "unit": "µg/mL"}, {"measurement": "Activity", "setting": "[2]", "result": "Non-toxic"}, {"measurement": "hemolysis at 1 h, 256 times MIC", "setting": "[3]", "result": "< 10", "unit": "%"}, {"measurement": "deltaG", "setting": "Calf thymus DNA", "result": -7.29, "unit": "kcal/mol"}, {"measurement": "Activity", "setting": "[4]", "result": "Non-toxic"}, {"measurement": "Activity", "setting": "Staphylococcus aureus [5]", "result": 79, "unit": "%"}, {"measurement": "Activity", "setting": "Staphylococcus aureus [6]", "result": "Dose-dependent-effect"}, {"measurement": "Activity", "setting": "Staphylococcus aureus [7]", "result": 5.31, "unit": "log10CFU/ml"}, {"measurement": "Activity", "setting": "[8]", "result": "Non-toxic"}, {"measurement": "Activity", "setting": "Staphylococcus aureus [9]", "result": "Dose-dependent-effect"}, {"measurement": "Activity", "setting": "Staphylococcus aureus [10]", "result": 100, "unit": "%"}, {"measurement": "MIC", "setting": "Staphylococcus aureus [11]", "result": 1, "unit": "µg/mL"}, {"measurement": "Activity", "setting": "Staphylococcus aureus [12]", "result": "Active"}, {"measurement": "Activity", "setting": "Cell membrane [13]", "result": "Active"}, {"measurement": "Activity", "setting": "Cell membrane [14]", "result": 27.8, "unit": "µg/mL"}, {"measurement": "Activity", "setting": "Staphylococcus aureus [15]", "result": "inactive"}, {"measurement": "MIC", "setting": "Staphylococcus aureus [16]", "result": 0.5, "unit": "µg/mL"}, {"measurement": "Activity", "setting": "Staphylococcus aureus [17]", "result": "Active"}, {"measurement": "MIC", "setting": "Staphylococcus aureus [18]", "result": 1, "unit": "µg/mL"}, {"measurement": "Activity", "setting": "[19]", "result": "Non-toxic"}, {"measurement": "Activity", "setting": "Staphylococcus aureus [20]", "result": 4.26, "unit": "log10CFU/ml"}, {"measurement": "MIC", "setting": "Staphylococcus aureus [21]", "result": 0.5, "unit": "µg/mL"}, {"measurement": "Activity", "setting": "Staphylococcus aureus [22]", "result": 3.95, "unit": "log10CFU/ml"}, {"measurement": "Activity", "setting": "Staphylococcus aureus [23]", "result": "Active"}, {"measurement": "fold change (FC)", "setting": "Staphylococcus aureus [24]", "result": 4}, {"measurement": "Activity", "setting": "[25]", "result": "Non-toxic"}, {"measurement": "hemolysis at 1 h, 1024 ug/ml", "setting": "[26]", "result": 26.4, "unit": "%"}, {"measurement": "Activity", "setting": "Staphylococcus aureus [27]", "result": 4.85, "unit": "log10CFU/g"}, {"measurement": "Activity", "setting": "L02", "result": 97.25, "unit": "%"}, {"measurement": "MIC", "setting": "Staphylococcus aureus [28]", "result": 1, "unit": "µg/mL"}]}
